Measured values taken from paper PMC11823594, “Durlobactam in combination with β-lactams to combat Mycobacterium abscessus” (Antimicrobial Agents and Chemotherapy, 2024).
Entries after “also recorded” stand apart in the source; their conditions may differ.

How the values were obtained:
DDC [1] = molecular target: T1, DDC (Mycobacteroides abscessus, UniProt B1MDJ1); experiment: Mass spectrometry of covalent adduct formation; format: binding; conditions: protein:drug 1:20, 2 h; mass accuracy ±5 Da; (−) = no change
T1 sequence (B1MDJ1 entry or part of it): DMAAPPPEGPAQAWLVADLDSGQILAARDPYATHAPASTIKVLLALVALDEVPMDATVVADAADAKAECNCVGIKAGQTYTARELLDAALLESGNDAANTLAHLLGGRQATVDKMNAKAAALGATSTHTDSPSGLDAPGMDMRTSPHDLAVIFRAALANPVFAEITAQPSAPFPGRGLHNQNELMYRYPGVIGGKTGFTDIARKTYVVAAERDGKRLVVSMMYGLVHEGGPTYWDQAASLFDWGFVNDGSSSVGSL
Method: (§1) Truncated sequences of LDT1-5, DDC, PBP B, and PBP-lipo (Δ1–41) were generated by Celtek Biosciences and cloned into the pET28(a) + vector with a tobacco etch virus (TEV) protease cleavage site before the start codon. Clones were transformed into Escherichia coli BL21 (DE3) and grown to an OD600 of 0.6–0.8. […] Cell pellets were collected and stored at −20°C overnight, then resuspended in a buffer containing 50 mM Tris (pH 8.0), 400 mM sodium chloride, and 1 mM Tris (2-carboxyethyl) phosphine hydrochloride (TCEP), followed by sonication and centrifugation. The supernatant was purified using a His Prep FF 16/10 column (GE Healthcare) and eluted with 500 mM imidazole. Eluted protein was dialyzed overnight at 4°C in a buffer with 50 mM Tris (pH 8.0), 150 mM sodium chloride, and 0.5 mM TCEP in the presence of His-tagged TEV protease. To remove the His tag, the mixture was passed over the His Prep FF 16/10 column again.
(§2) The purified proteins listed above were incubated at room temperature with β-lactams or BLIs at a molar ratio of 1:20 for 2 h. The reactions were then quenched with acetonitrile and diluted to 1 mL with 0.1% formic acid in water. Samples were analyzed using a quadrupole time-of-flight (Q-TOF) Waters Synapt-G2-Si electrospray ionization mass spectrometer (ESI-MS) and a Waters Acquity H class ultra-performance liquid chromatography (UPLC) system, equipped with a BEH C18 1.7 µm column (2.1 × 50 mm). The MS was tuned with the following settings: capillary voltage set at 3 kV, sampling cone at 35 V, source offset at 35, source temperature of 100°C, desolvation temperature of 500°C, cone gas flow rate at 100 L/h, desolvation gas flow rate at 800 L/h, and nebulizer set at 6.0. The mobile phases consisted of 0.1% formic acid in water and 0.1% formic acid in 100% acetonitrile, with gradient elution from 10% to 90% of […] over 11 min. The system’s mass accuracy was ±5 Da.

LDT5 = LDT5 (Mycobacterium abscessus, UniProt B1MM58); experiment: Mass spectrometry of covalent adduct formation; format: binding; conditions: protein:drug 1:20, 2 h; mass accuracy ±5 Da; (−) = no change
LDT5, sequence (B1MM58 entry or part of it): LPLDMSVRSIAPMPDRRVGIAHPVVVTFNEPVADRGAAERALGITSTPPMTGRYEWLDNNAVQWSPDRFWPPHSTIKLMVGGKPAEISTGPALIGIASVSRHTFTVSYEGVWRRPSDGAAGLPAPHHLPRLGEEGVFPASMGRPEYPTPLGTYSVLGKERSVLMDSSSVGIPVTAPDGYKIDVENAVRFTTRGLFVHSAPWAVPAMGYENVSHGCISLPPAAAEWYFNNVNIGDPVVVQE
Method: as §1, §2

LDT4 = LDT4 (Mycobacterium abscessus, UniProt B1MKW1); experiment: Mass spectrometry of covalent adduct formation; format: binding; conditions: protein:drug 1:20, 2 h; mass accuracy ±5 Da; (−) = no change
LDT4, sequence (B1MKW1 entry or part of it): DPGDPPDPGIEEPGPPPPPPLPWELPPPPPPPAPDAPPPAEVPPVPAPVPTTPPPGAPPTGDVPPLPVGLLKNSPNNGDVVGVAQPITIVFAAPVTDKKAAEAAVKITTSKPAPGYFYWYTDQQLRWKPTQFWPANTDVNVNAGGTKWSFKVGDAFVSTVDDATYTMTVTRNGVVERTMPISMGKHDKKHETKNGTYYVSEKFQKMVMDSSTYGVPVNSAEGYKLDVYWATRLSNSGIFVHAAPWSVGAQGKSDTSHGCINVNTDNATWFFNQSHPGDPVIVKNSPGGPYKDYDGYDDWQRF
Method: Truncated sequences of LDT1-5, DDC, PBP B, and PBP-lipo (Δ1–41) were generated by Celtek Biosciences and cloned into the pET28(a) + vector with a tobacco etch virus (TEV) protease cleavage site before the start codon. Clones were transformed into Escherichia coli BL21 (DE3) and grown to an OD600 of 0.6–0.8. Protein expression was induced with 0.25 mM isopropyl β-d-1-thiogalactopyranoside (IPTG) and incubated for 18 h at 18°C. Cell pellets were collected and stored at −20°C overnight, then resuspended in a buffer containing 50 mM Tris (pH 8.0), 400 mM sodium chloride, and 1 mM Tris (2-carboxyethyl) phosphine hydrochloride (TCEP), followed by sonication and centrifugation. The supernatant was purified using a His Prep FF 16/10 column (GE Healthcare) and eluted with 500 mM imidazole. Eluted protein was dialyzed overnight at 4°C in a buffer with 50 mM Tris (pH 8.0), 150 mM sodium chloride, and 0.5 mM TCEP in the presence of His-tagged TEV protease. To remove the His tag, the mixture was passed over the His Prep FF 16/10 column again.
as §2

LDT3 = LDT3 (Mycobacterium abscessus, UniProt B1MHQ4); experiment: Steady-state kinetics with nitrocefin (Ki,app); format: biochemical; conditions: in parentheses in Table 3
LDT3, sequence (B1MHQ4 entry or part of it): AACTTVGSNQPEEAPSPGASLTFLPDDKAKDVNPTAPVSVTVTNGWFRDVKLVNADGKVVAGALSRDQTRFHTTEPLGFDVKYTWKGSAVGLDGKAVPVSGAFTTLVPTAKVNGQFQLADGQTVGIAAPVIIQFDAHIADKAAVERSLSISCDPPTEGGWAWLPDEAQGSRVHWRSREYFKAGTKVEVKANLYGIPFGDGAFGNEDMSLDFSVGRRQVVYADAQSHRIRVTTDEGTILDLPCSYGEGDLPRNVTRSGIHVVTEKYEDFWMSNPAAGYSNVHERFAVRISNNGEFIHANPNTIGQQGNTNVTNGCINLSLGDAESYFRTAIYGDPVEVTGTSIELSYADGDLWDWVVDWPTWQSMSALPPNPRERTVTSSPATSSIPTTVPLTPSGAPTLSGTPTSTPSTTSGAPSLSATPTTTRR
Summary of the method: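 Purified enzyme at fixed concentration with nitrocefin at 5 × Km, varied β-lactam/BLI concentrations; A482 followed over 0–30 min. Ki,app taken from Dixon plots (1/ΔA vs inhibitor) and corrected for substrate: observed Ki,app/(1+[NCF]/Km NCF).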

DDC [2] = molecular target: T1, DDC; experiment: Differential scanning fluorimetry thermal shift assay; format: binding; conditions: 2 h; read-out: ΔTm DDC (Tm = 35.5°C)
Method: (§3) Each purified protein (2–4 µM) was incubated with or without β-lactams or BLIs at a molar ratio of 1:50 at room temperature for 2 h. Following incubation, SYPRO Orange dye (10× concentration; Fisher Scientific) was added. The samples were then brought to a final volume of 30 µL with PBS buffer and subjected to thermal cycling in a qPCR machine (Bio-Rad), with the temperature increasing from 25°C to 95°C at a rate of 1°C/min. Fluorescence changes were monitored with an excitation wavelength of 492 nm. The experiments were conducted at least in duplicate, and the melting temperature (Tm) was determined for each sample. The Tm values were then compared to those of the protein in the absence of β-lactams or BLIs to ascertain the change in melting temperature (ΔTm).

PBP B = PBP B (Mycobacterium abscessus, UniProt B1MP31); experiment: as above; format: binding; conditions: 2 h; read-out: ΔTm PBPB (Tm = 31.6°C)
PBP B, sequence (B1MP31 entry or part of it): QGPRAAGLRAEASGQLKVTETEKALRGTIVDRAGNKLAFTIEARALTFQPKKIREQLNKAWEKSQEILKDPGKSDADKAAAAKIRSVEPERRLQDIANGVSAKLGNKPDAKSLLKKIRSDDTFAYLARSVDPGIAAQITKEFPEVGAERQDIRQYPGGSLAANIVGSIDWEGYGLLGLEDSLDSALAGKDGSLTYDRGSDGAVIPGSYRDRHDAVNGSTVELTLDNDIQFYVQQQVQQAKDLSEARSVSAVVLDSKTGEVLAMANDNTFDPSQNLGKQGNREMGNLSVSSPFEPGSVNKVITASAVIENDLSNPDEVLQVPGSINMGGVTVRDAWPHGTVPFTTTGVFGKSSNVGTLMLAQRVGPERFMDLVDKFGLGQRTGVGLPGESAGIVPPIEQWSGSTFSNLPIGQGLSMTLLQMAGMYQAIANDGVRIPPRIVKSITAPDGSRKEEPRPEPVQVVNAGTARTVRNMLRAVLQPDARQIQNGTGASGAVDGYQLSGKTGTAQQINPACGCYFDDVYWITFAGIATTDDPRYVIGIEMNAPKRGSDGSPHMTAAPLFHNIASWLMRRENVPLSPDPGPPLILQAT
Method: as §3

Mab ATCC 19977 = experiment: Static drug-concentration time-kill (SCTK) assay with CART analysis; format: cell-based, Mycobacterium abscessus; conditions: clinically achievable concentrations, over 10 days; AVI 4 mg/L; DUR 12 mg/L + SUL 7 mg/L
LDT1 = LDT1 (Mycobacterium abscessus, UniProt B1MDC1); experiment: Mass spectrometry of covalent adduct formation; format: binding; conditions: protein:drug 1:20, 2 h; mass accuracy ±5 Da; (−) = no change
LDT1, sequence (B1MDC1 entry or part of it): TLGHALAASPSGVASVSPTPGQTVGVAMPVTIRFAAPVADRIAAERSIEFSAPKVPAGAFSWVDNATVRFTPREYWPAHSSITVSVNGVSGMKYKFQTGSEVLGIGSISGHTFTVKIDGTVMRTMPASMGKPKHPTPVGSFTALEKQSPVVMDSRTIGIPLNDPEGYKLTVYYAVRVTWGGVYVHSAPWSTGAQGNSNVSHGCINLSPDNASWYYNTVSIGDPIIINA
Method: as §1, §2

[3] = human, in vivo; cited from earlier work

For C[C@@H](O)[C@H]1C(=O)N2C(C(=O)O)=C(S[C@H]3CC[S@@+]([O-])C3)S[C@H]12 [Sulopenem, sulopenem], the “Observed MW (+ change in mw), DDC (26,788)” value (DDC [1]) was 27,138 (+349) Da, the “Observed MW (+ change in mw), LDT5 (28,220)” value (LDT5) was 28,306 (+86) Da and the “Observed MW (+ change in mw), LDT4 (32,567)” value (LDT4) was 32,652 (+86) Da. The “Ratio of fCss,avg to Ki,app, LDT3” value (LDT3) was 0.4, the ΔTm (DDC [2]) was 10.4 °C and the ΔTm (PBP B) was 1 °C.

For CC1(C)S[C@@H]2[C@H](NC(=O)[C@H](N)c3ccc(O)cc3)C(=O)N2[C@H]1C(=O)O [Amoxicillin, amoxicillin], the “Bacterial killing (log10 reduction) in time-kill” value (Mab ATCC 19977) was “no killing effect”, the “Observed MW (+ change in mw), LDT1 (23,059)” value (LDT1) was 28,220 (−) Da and the “Observed MW (+ change in mw), LDT5 (28,220)” value (LDT5) was 28,220 (−) Da.

For C[C@@H](O)[C@H]1C(=O)N2C(C(=O)O)=C(SC3CN(C4=NCCS4)C3)[C@H](C)[C@H]12 [Tebipenem, tebipenem], the “Observed MW (+ change in mw), DDC (26,788)” value (DDC [1]) was 27,173 (+385) Da, the “Observed MW (+ change in mw), LDT1 (23,059)” value (LDT1) was 23,443 (+384) Da and the “Observed MW (+ change in mw), LDT5 (28,220)” value (LDT5) was 28,220 (−) Da. For the same compound, the “Observed MW (+ change in mw), LDT4 (32,567)” value (LDT4) was 32,951 (+384) Da.

In the case of CO/N=C(\C(=O)N[C@@H]1C(=O)N2C(C(=O)O)=C(COC(N)=O)CS[C@H]12)c1ccco1 [Cefuroxime, cefuroxime], the “Observed MW (+ change in mw), LDT1 (23,059)” value (LDT1) is given as 23,059 (−) Da, the “Observed MW (+ change in mw), LDT4 (32,567)” value (LDT4) is given as 32,567 (−) Da and the “Total clearance after IV dosing” value [3] is given as 9.0 to 16 L/h.

With CC1=C[C@@H]2CN(C(=O)N2OS(=O)(=O)O)[C@@H]1C(N)=O [Durlobactam, durlobactam] the “Bacterial killing (log10 reduction) in time-kill” value (Mab ATCC 19977) was ~ 2 log10 CFU/mL, the “Observed MW (+ change in mw), DDC (26,788)” value (DDC [1]) was 27,066 (+276) Da and the “Observed MW (+ change in mw), LDT1 (23,059)” value (LDT1) was 23,336 (+277) Da. For the same compound, the “Observed MW (+ change in mw), LDT5 (28,220)” value (LDT5) was 28,496 (+276) Da, the “Observed MW (+ change in mw), LDT4 (32,567)” value (LDT4) was 32,841 (+276) Da and the ΔTm (DDC [2]) was 0.4 °C. It also gave a ΔTm (PBP B) of -0.4 °C.

In the case of NC(=O)[C@@H]1CC[C@@H]2CN1C(=O)N2OS(=O)(=O)O [Avibactam, avibactam], the “Bacterial killing (log10 reduction) in time-kill” value (Mab ATCC 19977) is reported as “no effect on bacterial growth inhibition or killing; also recorded: no effect”, the “Observed MW (+ change in mw), LDT1 (23,059)” value (LDT1) is reported as 23,325 (+265) Da and the “Observed MW (+ change in mw), LDT5 (28,220)” value (LDT5) is reported as 28,220 (−) Da. The ΔTm (DDC [2]) was 4.2 °C and the ΔTm (PBP B) was -0.2 °C.
